pIC50: −log10 of the molar value. Like-named read-outs stand apart in the source and are kept apart here.
How the values were obtained:
[1] = Microsomal stability in mouse liver microsomes; format: in vitro ADME; conditions: mLM; for Compound Remaining (1 h, %): 10 µM; for half-life at 10 µM / microsomal CLint at 10 µM: mouse, liver microsomes
Experimental: (§1) Metabolic stability analysis (mouse and human liver microsomes) was performed by Eurofins Cerep (Poitiers, France) at 10 µM as described in [55]. Results were obtained at 15, 30, 45 and 60 min. Results were expressed as percent of the parent compound remaining, and calculated by comparing the peak area of the compound at the time point relative to that at time 0. The half-life (t1/2) and the apparent intrinsic clearance (CLint) were evaluated.

[2] = Microsomal stability in human liver microsomes; format: in vitro ADME; conditions: hLM; for half-life at 10 µM / microsomal CLint at 10 µM: human, liver microsomes
Experimental: as §1
Metabolite identification was performed by HPLC-High Resolution mass spectrometry (MS). Chromatographic separation was performed on an Accela UPLC system (Thermo Fisher Scientific Inc. Waltham, MA, USA) equipped with an ACE 3 C18-AR column (100 × 2.1 mm, particle size 3 μm; AIT, Cormeilles-en-Parisis, France) preceded by a guard column (same stationary phase). The elution was performed with a gradient mode using water (solvent A) and ACN (solvent B), all acidified with 0.1% formic acid. The linear gradient elution program was as follows: 10% of B for 2 min; linear increase from 10 to 90% of solvent B for 20 min; 1 min at 90% of B; and 2 min of re-equilibration with 10% of B for a total run of 25 min. The LC flow rate was 400 µL/min and the injection volume was 10 μL. The column oven temperature was 30 °C and the sample tray temperature 4 °C. Eluted compounds were detected in positive mode by a full mass scan (m/z 200 to 500) using a Orbitrap Mass Spectrometer Exactive (Thermo Fisher Scientific Inc. Waltham, MA, USA) equipped with a heated electrospray ionization source (HESI-II). Instrument parameters were as follows: sheath gas 35, auxiliary gas 10 (both arbitrary units), spray voltage 2.4 kV, capillary temperature 275 °C, capillary voltage 67.5 V, tube lens voltage 120 V, skimmer voltage 24 V and source temperature 350 °C. Mass spectra were recorded at an ultra-high resolution (100,000). Instrument control, data acquisition and processing were performed using the associated Thermo Scientific software package (Xcalibur v.2.2 and Exactive v1.1).

Plasma stability = format: in vitro ADME; conditions: male, CD-1, mouse, 37 °C, read-out: Plasma t½ (converted)
Experimental: Plasma stability analyses were performed by M2SV (Lille, France). Incubations were performed in duplicate. The plasma (male mouse plasma CD-1, lithium-heparinized, from Sera Laboratories International Ltd. BioIVT, West Sussex, UK) was pre-incubated for 10 min at 37 °C before addition of the compound to a final concentration of 10 µM (0,1% DMSO). At the defined time points (0, 60, 1440 and 2880 min), fractions from each tube were transferred to fresh tubes containing cold CH3CN and an internal standard (Propanolol at 1 µM). After vigorous agitation and centrifugation (10 min at 10,000 rpm), the supernatants were analyzed. The degradation half-life (t1/2) values were calculated in minutes and hours via non-linear regression analysis using Microsoft® XLfit® Excel add-in from IDBS Ltd, Woking, UK.

Plasma protein binding = format: in vitro ADME; conditions: 4-h incubation at 37 °C, read-out: PPB (converted)
Experimental: The compound was classically evaluated at 10 µM for all the ADME analyses. Bidirectional permeability (apical A to basolateral B pH 6.5/7.4 and basolateral B to apical A pH 7.4/6.5) was assessed in the epithelial colorectal adenocarcinoma cell line (Caco-2 cell line). Results were expressed as × 10^−6cm/s (Papp) and as % recovery. Efflux ratio, i.e., Papp(B-A)/Papp(A-B), was calculated. Plasma protein binding was analyzed by HPLC-MS/MS after 4-h incubation at 37 °C, as described by Banker et al.. Concentration was evaluated by LC/MS-MS. CYP inhibition was performed in human liver microsomes as described in [61]. Analysis of the respective metabolites. was performed by HPLC-MS/MS. Transporter inhibition analysis was also performed in overexpressing cell lines. Respective metabolites for each specific transporter substrate were analyzed by fluorometry or scintillation counting and % inhibition of control values were calculated. […] Results were expressed as ×10^−6 cm/s (Papp) and as % recovery. The efflux ratio, i.e., Papp(B-A)/Papp(A-B), was calculated. […] The mRNA levels of 7 different CYPs were analyzed by qPCR, as described in [72]. The compound was evaluated at 1, 10 and 100 µM. Fold-induction values were determined and compared to cut-off values, as defined for each CYP isozyme in each hepatocyte lot.

BCRP = BCRP (Homo sapiens, UniProt Q9UNQ0); test: Drug transporter inhibition (ABC family); format: in vitro ADME; conditions: transporter-overexpressing cell lines, read-out: Drug transporters inhibition BCRP
Chain of BCRP (Q9UNQ0 whole entry): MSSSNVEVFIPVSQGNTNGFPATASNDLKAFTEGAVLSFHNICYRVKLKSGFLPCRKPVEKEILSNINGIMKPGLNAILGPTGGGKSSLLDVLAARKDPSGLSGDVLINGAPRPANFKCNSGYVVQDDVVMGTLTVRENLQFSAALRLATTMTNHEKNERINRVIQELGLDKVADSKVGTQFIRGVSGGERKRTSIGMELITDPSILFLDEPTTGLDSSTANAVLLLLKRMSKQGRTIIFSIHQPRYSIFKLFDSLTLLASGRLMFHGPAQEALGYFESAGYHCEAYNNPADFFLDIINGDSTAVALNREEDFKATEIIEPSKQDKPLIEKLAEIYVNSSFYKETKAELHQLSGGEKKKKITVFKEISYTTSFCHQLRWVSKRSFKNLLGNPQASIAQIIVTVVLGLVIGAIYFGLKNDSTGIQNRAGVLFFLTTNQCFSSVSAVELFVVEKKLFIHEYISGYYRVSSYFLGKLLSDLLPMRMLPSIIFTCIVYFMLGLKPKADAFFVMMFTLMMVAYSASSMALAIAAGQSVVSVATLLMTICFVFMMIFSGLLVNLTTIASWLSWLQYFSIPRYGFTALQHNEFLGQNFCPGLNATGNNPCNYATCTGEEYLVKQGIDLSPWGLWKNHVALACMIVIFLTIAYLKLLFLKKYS
Experimental: (§2) The compound was classically evaluated at 10 µM for all the ADME analyses. Bidirectional permeability (apical A to basolateral B pH 6.5/7.4 and basolateral B to apical A pH 7.4/6.5) was assessed in the epithelial colorectal adenocarcinoma cell line (Caco-2 cell line). Results were expressed as × 10^−6cm/s (Papp) and as % recovery. Efflux ratio, i.e., Papp(B-A)/Papp(A-B), was calculated. Plasma protein binding was analyzed by HPLC-MS/MS after 4-h incubation at 37 °C, as described by Banker et al.. Concentration was evaluated by LC/MS-MS. CYP inhibition was performed in human liver microsomes as described in [61]. Analysis of the respective metabolites. was performed by HPLC-MS/MS. Transporter inhibition analysis was also performed in overexpressing cell lines. Respective metabolites for each specific transporter substrate were analyzed by fluorometry or scintillation counting and % inhibition of control values were calculated. P-glycoprotein transporter substrate assessment was performed by bidirectional permeability analysis (apical A to basolateral B pH 7.4/7.4 and basolateral B to apical A pH 7.4/7.4) in the Caco-2 cell line with and without verapamil, as described in [59]. Results were expressed as ×10^−6 cm/s (Papp) and as % recovery. The efflux ratio, i.e., Papp(B-A)/Papp(A-B), was calculated. CYP450 induction characterization was performed on human hepatocytes. The mRNA levels of 7 different CYPs were analyzed by qPCR, as described in [72]. The compound was evaluated at 1, 10 and 100 µM. Fold-induction values were determined and compared to cut-off values, as defined for each CYP isozyme in each hepatocyte lot.

MRP1 = MRP1 (Homo sapiens, UniProt P33527); test: Drug transporter inhibition (ABC family); format: in vitro ADME; conditions: transporter-overexpressing cell lines, read-out: Drug transporters inhibition MRP1
Chain of MRP1 (P33527 whole entry): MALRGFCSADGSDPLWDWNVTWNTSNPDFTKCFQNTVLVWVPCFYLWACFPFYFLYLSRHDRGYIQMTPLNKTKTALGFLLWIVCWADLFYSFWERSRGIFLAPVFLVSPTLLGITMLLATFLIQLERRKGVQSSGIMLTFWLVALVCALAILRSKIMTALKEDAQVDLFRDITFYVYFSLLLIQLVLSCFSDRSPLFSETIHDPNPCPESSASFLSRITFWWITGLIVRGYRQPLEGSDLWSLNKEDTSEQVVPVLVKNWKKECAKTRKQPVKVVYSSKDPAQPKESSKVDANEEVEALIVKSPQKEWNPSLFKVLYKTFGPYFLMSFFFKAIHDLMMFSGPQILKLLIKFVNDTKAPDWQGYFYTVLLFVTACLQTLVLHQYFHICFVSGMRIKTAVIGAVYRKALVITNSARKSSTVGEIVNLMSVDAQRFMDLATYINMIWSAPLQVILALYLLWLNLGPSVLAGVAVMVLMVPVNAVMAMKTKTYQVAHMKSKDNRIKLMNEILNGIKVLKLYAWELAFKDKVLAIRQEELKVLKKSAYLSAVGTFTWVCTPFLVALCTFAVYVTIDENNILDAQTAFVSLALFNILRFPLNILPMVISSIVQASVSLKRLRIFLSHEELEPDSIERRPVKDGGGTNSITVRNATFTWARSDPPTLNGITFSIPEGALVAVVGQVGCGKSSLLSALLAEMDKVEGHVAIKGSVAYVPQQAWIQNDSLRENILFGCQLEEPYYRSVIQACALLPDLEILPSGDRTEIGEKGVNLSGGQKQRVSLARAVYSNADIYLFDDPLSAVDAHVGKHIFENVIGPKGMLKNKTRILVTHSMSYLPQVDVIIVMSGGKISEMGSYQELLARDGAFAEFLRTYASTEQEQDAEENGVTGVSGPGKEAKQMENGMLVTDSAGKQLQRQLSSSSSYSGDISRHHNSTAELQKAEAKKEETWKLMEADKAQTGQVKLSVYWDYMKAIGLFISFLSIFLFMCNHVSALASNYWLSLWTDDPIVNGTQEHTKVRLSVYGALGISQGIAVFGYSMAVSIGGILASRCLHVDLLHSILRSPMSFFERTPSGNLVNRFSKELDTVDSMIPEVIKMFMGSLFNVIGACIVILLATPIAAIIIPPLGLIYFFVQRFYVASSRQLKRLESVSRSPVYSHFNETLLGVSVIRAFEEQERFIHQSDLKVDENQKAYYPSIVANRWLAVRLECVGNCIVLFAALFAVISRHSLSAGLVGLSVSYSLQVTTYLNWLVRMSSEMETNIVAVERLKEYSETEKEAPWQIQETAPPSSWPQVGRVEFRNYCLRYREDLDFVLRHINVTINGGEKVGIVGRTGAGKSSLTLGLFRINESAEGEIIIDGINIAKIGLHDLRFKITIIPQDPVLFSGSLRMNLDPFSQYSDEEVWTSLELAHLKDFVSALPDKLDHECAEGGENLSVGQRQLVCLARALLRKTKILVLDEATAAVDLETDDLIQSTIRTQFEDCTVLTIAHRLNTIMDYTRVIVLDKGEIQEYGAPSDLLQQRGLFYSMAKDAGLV
Experimental: as §2

MRP2 = MRP2 (Homo sapiens, UniProt Q92887); test: Drug transporter inhibition (ABC family); format: in vitro ADME; conditions: transporter-overexpressing cell lines, read-out: Drug transporters inhibition MRP2
Experimental: as §2

MRP3 = MRP3 (Homo sapiens, UniProt O15438); test: Drug transporter inhibition (ABC family); format: in vitro ADME; conditions: transporter-overexpressing cell lines, read-out: Drug transporters inhibition MRP3
Experimental: as §2

P-gp = target: T1, P-gp (Homo sapiens, UniProt P08183); test: Drug transporter inhibition (ABC family); format: in vitro ADME; conditions: transporter-overexpressing cell lines, read-out: Drug transporters inhibition P-gp
T1 construct: in the Caco-2 cell line with and without verapamil; host or cells: Caco-2
Experimental: as §2

OATP1B1 = OATP1B1 (Homo sapiens, UniProt Q9Y6L6); test: Drug transporter inhibition (SLC family); format: in vitro ADME; conditions: transporter-overexpressing cell lines, read-out: Drug transporters inhibition OATP1B1
Chain of OATP1B1 (Q9Y6L6 whole entry): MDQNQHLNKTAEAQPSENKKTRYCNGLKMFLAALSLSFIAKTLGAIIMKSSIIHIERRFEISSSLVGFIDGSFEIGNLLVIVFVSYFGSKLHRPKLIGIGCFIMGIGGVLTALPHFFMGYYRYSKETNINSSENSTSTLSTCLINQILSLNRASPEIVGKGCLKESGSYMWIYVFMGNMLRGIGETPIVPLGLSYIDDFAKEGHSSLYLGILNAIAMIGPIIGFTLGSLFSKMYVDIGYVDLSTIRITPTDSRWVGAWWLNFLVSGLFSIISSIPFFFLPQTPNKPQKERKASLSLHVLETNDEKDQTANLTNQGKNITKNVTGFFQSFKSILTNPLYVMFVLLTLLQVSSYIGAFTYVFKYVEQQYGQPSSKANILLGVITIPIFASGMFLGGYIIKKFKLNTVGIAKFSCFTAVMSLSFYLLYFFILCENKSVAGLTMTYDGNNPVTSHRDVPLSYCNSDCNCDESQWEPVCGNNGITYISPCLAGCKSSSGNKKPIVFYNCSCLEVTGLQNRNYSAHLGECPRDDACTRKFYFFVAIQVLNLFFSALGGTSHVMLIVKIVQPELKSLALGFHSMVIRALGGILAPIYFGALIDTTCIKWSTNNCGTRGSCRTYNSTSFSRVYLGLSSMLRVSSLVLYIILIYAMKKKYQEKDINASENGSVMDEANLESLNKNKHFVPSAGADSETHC
Experimental: as §2

hERG = target: T2, hERG (Homo sapiens, UniProt Q12809); test: hERG automated patch-clamp in hERG-CHO cells; format: cell-based
T2 construct: host or cells: CHO (hERG-CHO overexpressing cells)
T2 sequence (Q12809 whole entry): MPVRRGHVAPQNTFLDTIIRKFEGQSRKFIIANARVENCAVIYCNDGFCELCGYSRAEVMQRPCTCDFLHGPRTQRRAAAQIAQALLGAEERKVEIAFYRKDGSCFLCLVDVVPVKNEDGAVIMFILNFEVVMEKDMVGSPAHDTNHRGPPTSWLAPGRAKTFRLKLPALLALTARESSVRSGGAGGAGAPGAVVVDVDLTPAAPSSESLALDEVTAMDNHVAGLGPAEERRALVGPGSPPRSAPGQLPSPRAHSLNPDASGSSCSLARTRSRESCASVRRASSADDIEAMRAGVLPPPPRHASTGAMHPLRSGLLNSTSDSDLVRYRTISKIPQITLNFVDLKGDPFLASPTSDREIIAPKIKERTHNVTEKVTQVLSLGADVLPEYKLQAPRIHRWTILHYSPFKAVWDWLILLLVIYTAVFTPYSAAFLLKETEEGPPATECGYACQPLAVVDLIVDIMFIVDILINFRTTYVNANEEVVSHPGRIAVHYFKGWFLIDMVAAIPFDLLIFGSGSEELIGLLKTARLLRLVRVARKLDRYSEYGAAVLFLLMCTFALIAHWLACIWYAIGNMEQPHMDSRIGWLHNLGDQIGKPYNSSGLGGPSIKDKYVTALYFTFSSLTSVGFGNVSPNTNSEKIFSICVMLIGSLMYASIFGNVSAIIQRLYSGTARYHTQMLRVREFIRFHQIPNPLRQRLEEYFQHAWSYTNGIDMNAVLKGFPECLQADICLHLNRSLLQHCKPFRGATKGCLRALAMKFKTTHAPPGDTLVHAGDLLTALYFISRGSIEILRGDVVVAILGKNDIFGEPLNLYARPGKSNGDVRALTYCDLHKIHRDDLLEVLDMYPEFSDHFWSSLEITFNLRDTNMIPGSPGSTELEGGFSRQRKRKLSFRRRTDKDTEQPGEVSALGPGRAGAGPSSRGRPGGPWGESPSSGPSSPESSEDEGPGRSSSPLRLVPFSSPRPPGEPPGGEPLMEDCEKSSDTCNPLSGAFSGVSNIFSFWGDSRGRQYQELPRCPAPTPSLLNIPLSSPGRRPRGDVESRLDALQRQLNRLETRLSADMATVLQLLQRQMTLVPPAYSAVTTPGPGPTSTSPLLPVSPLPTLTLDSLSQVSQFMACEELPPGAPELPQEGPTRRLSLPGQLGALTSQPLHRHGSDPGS
Experimental: Cardiotoxicity analysis was performed by Eurofins Cerep (Poitiers, France) according to [73]. hERG-CHO overexpressing cells were used to perform automated patch-clamping. Compound 7i was evaluated at 0.1, 1 and 10 µM. Activities were expressed as % inhibition of tail current.

Row | SMILES | Compound Remaining (1 h, %) [1] | half-life at 10 µM [1] | microsomal CLint at 10 µM [1] | t1/2 ([2]; 10 µM) | Compound Remaining (1 h, %) ([2]; 10 µM) | half-life at 10 µM [2] | microsomal CLint at 10 µM [2] | half-life at 10 µM (Plasma stability) | fraction unbound at 4 h, 10 µM (Plasma protein binding) | inhibition at 10 µM (BCRP) | inhibition at 10 µM (MRP1) | inhibition at 10 µM (MRP2) | inhibition at 10 µM (MRP3) | inhibition at 10 µM (P-gp) | inhibition at 10 µM (OATP1B1) | pIC50 (hERG; read-out: hERG IC50) | pIC50 (hERG; Table 4, read-out: hERG inhibition IC50)
1 | O=C(NCCCNCc1ccccc1)c1ccc(Cl)cc1 [compound 7i-deMe] | 80% | > 3 h | < 115 µL/min/mg | 10.0 h | 83% | > 9 h | < 115 µL/min/mg | 23 h | 0.19 | -3% | -3.4% | -11.5% | -0.6% | 1% | 8.6% | 5.92 | –
2 | CN(CCCNC(=O)c1ccc(Cl)cc1)Cc1ccccc1 [compound 7i] | 54% | > 1 h | < 115 µL/min/mg | – | 66% | > 1 h | < 115 µL/min/mg | > 24 h | > 0.05 | 8.3% | 1.9% | -18.8% | -0.3% | 10.6% | 12% | – | 6.00

From publication PMC9569529, “Safe and Efficient Sigma1 Ligand: A Potential Drug Candidate for Multiple Sclerosis” (International Journal of Molecular Sciences, 2022)
